# Read-outs that look alike come from different tables or passages of the source.
# Assays:
# Gal-1 [1] = molecular target: Gal-1; parameters: method as in PMID 15476813; details: native ligand used as competitor; cited from earlier work
# S100A4 [2] = molecular target: T1, S100A4 (Homo sapiens, UniProt P26447); assay: Competition pull-down with native ligand NMIIA (1893–1923); format: binding; details: H14 library; competitor peptide 200 µM; read-out: Surface mapping KD (apparent), competition
# T1 construct: made in house; host or cells: Escherichia coli BL21(DE3)
# CaM [3] = molecular target: T2, CaM (Bos taurus, UniProt P62157); assay: Competition pull-down with native ligand TRPV1-Ct15; format: binding, bovine; details: H14 library; competitor peptide 200 µM; read-out: Surface mapping KD (apparent), competition
# T2 construct: made in house; host or cells: E. coli BL21 (DE3)
# RecQ-WH [4] = molecular target: T3, RecQ-WH (Escherichia coli, UniProt P15043); assay: Pull-down assay with immobilized protein and LSM libraries; parameters: species or system E. coli; details: H14 library; 1:1 binding assumed; read-out: Surface mapping KD (apparent)
# T3 construct: coding for residues 408– 523 of E. coli RecQ; made in house; host or cells: E. coli BL21(DE3)
# How it was run: (§1)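 His-tagged protein immobilized on Co-NTA resin (64 µM) in 20 mM HEPES pH 7.4, 150 mM NaCl, equilibrated 30 min at room temperature with foldamer LSM sublibraries at equimolar total concentration. Unbound fractions quantified by HPLC-MS versus protein-free resin control; apparent KD assumes 1:1 binding.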
# S100B [5] = molecular target: T4, S100B (Homo sapiens, UniProt P04271); assay: Competition pull-down with native ligand RSK1 (689–735); format: binding; details: H14 library; competitor peptide 200 µM; read-out: Surface mapping KD (apparent), competition
# T4 construct: made in house; host or cells: Escherichia coli BL21(DE3)
# T4 sequence (P04271 1-92): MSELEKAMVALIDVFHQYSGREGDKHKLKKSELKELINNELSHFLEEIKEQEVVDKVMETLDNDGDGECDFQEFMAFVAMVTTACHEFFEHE
# RecQ-WH [6] = molecular target: T3, RecQ-WH; assay: Competition pull-down with native ligand SSB-Ct8; format: binding, E. coli; details: H14 library; competitor peptide 200 µM; read-out: Surface mapping KD (apparent), competition
# CaM [7] = molecular target: T2, CaM; assay: Pull-down assay with immobilized protein and LSM libraries; format: binding, bovine; details: H14 library; 1:2 stoichiometry assumed; read-out: Surface mapping KD (apparent)
# How it was run: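 His-tagged protein immobilized on Co-NTA resin, equilibrated 30 min at room temperature with LSM sublibraries (64 members, […]), equimolar protein to total probe. CaM buffer: 20 mM HEPES pH 7.4, 150 mM NaCl, 5 mM CaCl2. Bound fractions from HPLC-MS loss of unbound probe versus protein-free resin control; Kd derived.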
# Gal-1 [8] = molecular target: T5, Gal-1 (Homo sapiens, UniProt P09382); assay: Competition pull-down with lactose; format: binding; details: H14 library; lactose 10 mM; read-out: Surface mapping KD (apparent), competition
# T5 construct: made in house; host or cells: E. coli BL21(DE3)
# How it was run: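 His6-tagged proteins immobilized on Co-NTA resin at 64 µM final with 64-member LSM foldamer sublibraries (1 M each, as printed) in pH 7.4 HEPES/NaCl buffers (Ca2+/TCEP per target), 30 min RT; competitor peptides 200 µM final, lactose 10 mM for Gal-1. Bound fractions from LC-MS loss vs protein-free resin; KD assuming 1:1 binding.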
# S100B [9] = molecular target: T4, S100B; assay: Pull-down assay with immobilized protein and LSM libraries; format: binding; details: for Kd: H14 library, 1:1 binding assumed, read-out: Surface mapping KD (apparent); for Affinity class of probe (high, medium, low) in pull-down: H14 probes selected for validation
# How it was run: (§2)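 Buffers were HEPES pH 7.4 with 150 mM NaCl, plus 1 mM TCEP and 1 mM CaCl2 (50 mM HEPES) for S100A4 and S100B, 1 mM TCEP for Gal-1, and no additive for RecQ-WH. Immobilized protein at 64 µM was equilibrated 30 min with the LSM sublibrary, and unbound probes were measured by LC-MS.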
# Gal-1 [10] = molecular target: T5, Gal-1; assay: as above; format: binding; details: H14 library; 1:1 binding assumed; read-out: Surface mapping KD (apparent)
# How it was run: as §1
# S100A4 [11] = molecular target: T1, S100A4; assay: as above; format: binding; details: for Kd: H14 library, 1:1 binding assumed, read-out: Surface mapping KD (apparent); for Affinity class of probe (high, medium, low) in pull-down: H14 probes selected for validation
# How it was run: as §2
# S100A4 [12] = molecular target: T1, S100A4; parameters: method as in PMID 26527685; details: native ligand used as competitor; cited from earlier work
# S100B [13] = molecular target: T4, S100B; parameters: method as in PMID 26527685; details: native ligand used as competitor; cited from earlier work
# T5 sequence (P09382 whole entry): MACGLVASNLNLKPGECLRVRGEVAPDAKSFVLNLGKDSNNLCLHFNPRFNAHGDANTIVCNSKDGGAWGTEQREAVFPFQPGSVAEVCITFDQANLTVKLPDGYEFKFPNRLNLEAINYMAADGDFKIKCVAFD
# T1 sequence (P26447 whole entry): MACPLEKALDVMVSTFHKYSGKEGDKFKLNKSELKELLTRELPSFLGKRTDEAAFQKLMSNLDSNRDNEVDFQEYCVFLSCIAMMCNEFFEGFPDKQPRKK
# T3 sequence (P15043 408-523): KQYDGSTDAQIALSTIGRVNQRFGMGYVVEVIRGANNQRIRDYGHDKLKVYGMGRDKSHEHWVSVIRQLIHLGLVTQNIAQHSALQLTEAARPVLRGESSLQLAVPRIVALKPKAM
Molecule,Kd (Gal-1 [1]) [µM],Kd (S100A4 [2]) [µM],Kd (CaM [3]) [µM],Kd (RecQ-WH [4]) [µM],Kd (S100B [5]) [µM],Kd (RecQ-WH [6]) [µM],Kd (CaM [7]) [µM],Kd (Gal-1 [8]) [µM],Kd (S100B [9]) [µM],Kd (Gal-1 [10]) [µM],Kd (S100A4 [11]) [µM],"Affinity class of probe (high, medium, low) in pull-down (S100B [9])","Affinity class of probe (high, medium, low) in pull-down (S100A4 [11])",Kd (S100A4 [12]) [µM],Kd (S100B [13]) [µM]
OC[C@H]1O[C@@H](O[C@H]2[C@H](O)[C@@H](O)C(O)O[C@@H]2CO)[C@H](O)[C@@H](O)[C@H]1O (mixture of isomers) [Lactose],409,–,–,–,–,–,–,–,–,–,–,–,–,–,–
CC(C)C[C@@H](CC(=O)N[C@H]1CCCC[C@@H]1C(=O)N[C@H]1CCCC[C@@H]1C(=O)N[C@H](CC(=O)N[C@H]1CCCC[C@@H]1C(N)=O)Cc1c[nH]c2ccccc12)NC(=O)[C@H]1CCCC[C@@H]1N [H14 LW],–,244,88,195,67,315,0.4,65,21,38,8,–,–,–,–
CC[C@H](C)[C@@H](CC(=O)N[C@H]1CCCC[C@@H]1C(N)=O)NC(=O)[C@H]1CCCC[C@@H]1NC(=O)[C@H]1CCCC[C@@H]1NC(=O)C[C@H](Cc1c[nH]c2ccccc12)NC(=O)[C@H]1CCCC[C@@H]1N [H14 WI],–,255,55,68,123,142,1,105,12,71,10,–,–,–,–
CC(C)C[C@@H](CC(=O)N[C@H]1CCCC[C@@H]1C(N)=O)NC(=O)[C@H]1CCCC[C@@H]1NC(=O)[C@H]1CCCC[C@@H]1NC(=O)C[C@H](Cc1c[nH]c2ccccc12)NC(=O)[C@H]1CCCC[C@@H]1N [H14 WL],–,255,55,68,123,142,1,105,12,71,10,high,high,–,–
NC(=O)[C@H]1CCCC[C@@H]1NC(=O)C[C@H](Cc1c[nH]c2ccccc12)NC(=O)[C@H]1CCCC[C@@H]1NC(=O)[C@H]1CCCC[C@@H]1NC(=O)C[C@H](Cc1c[nH]c2ccccc12)NC(=O)[C@H]1CCCC[C@@H]1N [H14 WW],–,462,35,40,138,84,1.2,51,19,30,23,high,medium,–,–
NC(=O)[C@H]1CCCC[C@@H]1NC(=O)C[C@H](Cc1ccc(O)cc1)NC(=O)[C@H]1CCCC[C@@H]1NC(=O)[C@H]1CCCC[C@@H]1NC(=O)C[C@H](Cc1c[nH]c2ccccc12)NC(=O)[C@H]1CCCC[C@@H]1N [H14 WY],–,367,119,50,104,193,2,222,66,145,35,–,–,–,–
NC(=O)[C@H]1CCCC[C@@H]1NC(=O)C[C@H](Cc1c[nH]c2ccccc12)NC(=O)[C@H]1CCCC[C@@H]1NC(=O)[C@H]1CCCC[C@@H]1NC(=O)C[C@H](Cc1ccc(O)cc1)NC(=O)[C@H]1CCCC[C@@H]1N [H14 YW],–,391,404,46,38,164,2,112,42,115,25,–,–,–,–
"NMIIA (1893–1923): peptide motif of non-muscle myosin IIA, native ligand competitor for S100A4",–,–,–,–,–,–,–,–,–,–,–,–,–,0.007 ± 0.001,–
"RSK1 (689–735): peptide motif of ribosomal S6 kinase 1, native ligand competitor for S100B (QDLQLVKGAMAATYSALNSSKPTPQLKPIESSILAQRRVRKLPSTTL; UniProt Q15418 689-735, looked up, fragment)",–,–,–,–,–,–,–,–,–,–,–,–,–,–,1.8
